In patent US20170290774A1, “NEUROKININ-1 RECEPTOR ANTAGONIST COMPOSITION FOR TREATMENT OF DISEASES AND CONDITIONS OF THE RESPIRATORY TRACT” (PLUS VITECH, S.L., priority 2014, published 2017):

System: MMP-11
Test: Immunohistochemistry of MMP-11 in respiratory tract tissue of sodium hypochlorite aerosol-treated rabbits
Assay type: in vivo, New Zealand albino rabbits
Text: It is known that the factors TGF-α, TGF-β 1, TGF-β 2, TGF-β 3, SPARC, MMP-3; MMP-7, MMP-9, MMP-11, MMP-13 and MMP-14, TGF-β, NF-kB, EGF, MMP-9, VEGF and TNF-α which are produced by lung cells (pneumocytes, fibroblasts and vascular endothelial cells) and inflammatory cells (macrophages, lymphocytes and polymorphonuclear leukocytes) are involved in the pathophysiology and development of said respiratory tract diseases. […] Herein, 27 New Zealand albino rabbits (New Zealand White Rabbit) with an initial average weight about 3 kg were used in this example. All subjects were administered an aerosol of a solution consisting of a mixture of water and sodium hypochlorite (35 g sodium hypochlorite per liter of water) at a rate of 5 mL of said solution by inhalation three times a day for 7 days (days 1 to 7 of experimentation). Subsequently, from days 3 to 7, a group of 3 rabbits (Group 1) was administered an oral dose of 10 mg/kg body weight per day, another group of 3 rabbits (Group 2) was administered an oral dose of 40 mg/kg body weight per day, a third group (Group 3) was administered an oral dose of 80 mg/kg body weight per day and a fourth group (Group 4) was administered an oral dose of 100 mg/kg body weight per day. […] This mixture was administered as an aerosol by inhalation, also from days 3 to 7, to a group of 3 rabbits (group 5) at a dose of 0.05 mg/kg body weight per day, to another group of three rabbits (Group 6) at a dose of 0.1 mg/kg body weight per day, to another group of three rabbits (Group 7) at a dose of 0.2 mg/kg body weight per day and to another group of three rabbits (Group 8) at a dose of 0.4 mg/kg body weight per day. A placebo consisting only of olive oil was administered from days 3 to 7 to a control group of 3 rabbits (placebo group). In parallel, 3 rabbits were kept under identical conditions but were not administered any treatment nor the aforementioned sodium hypochlorite solution (control group). […] On day 7 of the experiment all animals were euthanized and necropsied. […] Samples were taken at the peripheral level of the lung parenchyma, just below the pleural surface. Tissue samples were also taken from the nasal cavity, pharynx, larynx and bronchi. Immunohistochemistry studies were performed for all samples to evaluate the levels of the markers TGF-α, TGF-β 1, TGF-β 2, TGF-β 3 SPARC, MMP-3; MMP-7, MMP-9, MMP-11, MMP-14, TGF-β, TNF-α and VEGF. In said immunohistochemistry studies, a sample of each sample was dehydrated by treatment with increasing concentrations of ethanol and finally xylene. Subsequently said dried samples were embedded in paraffin, thus creating a block. Said paraffin blocks were cut on a microtome to a thickness of 5 μm, and the resulting sections (slices) were placed on slides suitable for conducting immunohistochemistry techniques. Subsequently, the sections were deparaffinised by immersion in xylene and then rehydrated through immersion in a series of solutions containing decreasing concentrations of ethanol and, finally, water. […] The samples were then allowed to cool to room temperature over 10 minutes. Endogenous peroxidase activity was blocked by treatment with 3% hydrogen peroxide over 30 min at room temperature. […] In order to verify the expression of NK1 receptors, the cell samples were incubated in the presence of anti-NK1 antibodies ([…], Sigma-Aldrich) diluted 1:1000 at 4° C. overnight. After this time they were washed in 0.05M Tris buffer at room temperature. Subsequently, Envision System-HRP (Dako) reagents were added for 30 min at room temperature. Once this time had expired, the samples were again washed with 0.05 M Tris buffer, and immunoreactivity was visualized by light microscopy with a chromogenic solution with 3,3'-diaminobenzidine (DAB+; Dako, USA). In order to differentiate the cell nuclei, these were lightly stained with haematoxylin. Samples that were not incubated with the primary antibody, but wherein this was replaced by a non-immune serum were used as negative controls. […]

C[C@@H](OC1OCCN(Cc2nc(=O)[nH][nH]2)C1c1ccc(F)cc1)c1cc(C(F)(F)F)cc(C(F)(F)F)c1 (stereo in doubt) [Aprepitant, 5-([(2R,3S)-2-((R)-1-[3,5-bis(trifluoromethyl)phenyl]ethoxy)-3-(4-fluorophenyl)morpholino]methyl)-1H-1,2,4-triazol-3(2H)-one]
Percent increase in MMP-11 with respect to the control group (bronchial tissue, Group 1, oral 10 mg/kg per day): 784.45%
Percent increase in MMP-11 with respect to the control group (bronchial tissue, Group 2, oral 40 mg/kg per day): 673.45%
Percent increase in MMP-11 with respect to the control group (bronchial tissue, Group 3, oral 80 mg/kg per day): 563.45%
Percent increase in MMP-11 with respect to the control group (bronchial tissue, Group 4, oral 100 mg/kg per day): 453.34%
% Med G5/C: percent increase in marker MMP-11 with respect to the control group (bronchial tissue, Group 5): 653.23%
% Med G6/C: percent increase in marker MMP-11 with respect to the control group (bronchial tissue, Group 6): 438.43%
% Med G7/C: percent increase in marker MMP-11 with respect to the control group (bronchial tissue, Group 7): 342.56%
% Med G8/C: percent increase in marker MMP-11 with respect to the control group (bronchial tissue, Group 8): 159.42%
Percent increase in MMP-11 with respect to the control group (laryngeal tissue, Group 1, oral 10 mg/kg per day): 789.61%
Percent increase in MMP-11 with respect to the control group (laryngeal tissue, Group 2, oral 40 mg/kg per day): 576.17%
Percent increase in MMP-11 with respect to the control group (laryngeal tissue, Group 3, oral 80 mg/kg per day): 456.89%
Percent increase in MMP-11 with respect to the control group (laryngeal tissue, Group 4, oral 100 mg/kg per day): 324.89%
Percent increase in MMP-11 with respect to the control group (laryngeal tissue, Group 5, inhalation 0.05 mg/kg per day): 768.34%
Percent increase in MMP-11 with respect to the control group (laryngeal tissue, Group 6, inhalation 0.1 mg/kg per day): 504.34%
Percent increase in MMP-11 with respect to the control group (laryngeal tissue, Group 7, inhalation 0.2 mg/kg per day): 203.23%
Percent increase in MMP-11 with respect to the control group (laryngeal tissue, Group 8, inhalation 0.4 mg/kg per day): 167.36%
Percent increase in MMP-11 with respect to the control group (lung tissue, Group 1, oral 10 mg/kg per day): 522.19%
Percent increase in MMP-11 with respect to the control group (lung tissue, Group 2, oral 40 mg/kg per day): 416.18%
Percent increase in MMP-11 with respect to the control group (lung tissue, Group 3, oral 80 mg/kg per day): 339.86%
Percent increase in MMP-11 with respect to the control group (lung tissue, Group 4, oral 100 mg/kg per day): 251.62%
Percent increase in MMP-11 with respect to the control group (lung tissue, Group 5, inhalation 0.05 mg/kg per day): 520.05%
Percent increase in MMP-11 with respect to the control group (lung tissue, Group 6, inhalation 0.1 mg/kg per day): 222.75%
Percent increase in MMP-11 with respect to the control group (lung tissue, Group 7, inhalation 0.2 mg/kg per day): 169.57%
Percent increase in MMP-11 with respect to the control group (lung tissue, Group 8, inhalation 0.4 mg/kg per day): 128.28%
Percent increase in MMP-11 with respect to the control group (nasal cavity tissue, Group 1, oral 10 mg/kg per day): 1,023.73%
Percent increase in MMP-11 with respect to the control group (nasal cavity tissue, Group 2, oral 40 mg/kg per day): 609.60%
Percent increase in MMP-11 with respect to the control group (nasal cavity tissue, Group 3, oral 80 mg/kg per day): 392.70%
Percent increase in MMP-11 with respect to the control group (nasal cavity tissue, Group 4, oral 100 mg/kg per day): 270.95%
Percent increase in MMP-11 with respect to the control group (nasal cavity tissue, Group 5, inhalation 0.05 mg/kg per day): 1,215.12%
Percent increase in MMP-11 with respect to the control group (nasal cavity tissue, Group 6, inhalation 0.1 mg/kg per day): 489.76%
Percent increase in MMP-11 with respect to the control group (nasal cavity tissue, Group 7, inhalation 0.2 mg/kg per day): 266.47%
Percent increase in MMP-11 with respect to the control group (nasal cavity tissue, Group 8, inhalation 0.4 mg/kg per day): 133.33%
Percent increase in MMP-11 with respect to the control group (pharyngeal tissue, Group 1, oral 10 mg/kg per day): 1,387.65%
Percent increase in MMP-11 with respect to the control group (pharyngeal tissue, Group 2, oral 40 mg/kg per day): 1,980.45%
Percent increase in MMP-11 with respect to the control group (pharyngeal tissue, Group 3, oral 80 mg/kg per day): 980.34%
Percent increase in MMP-11 with respect to the control group (pharyngeal tissue, Group 4, oral 100 mg/kg per day): 670.45%
Percent increase in MMP-11 with respect to the control group (pharyngeal tissue, Group 5, inhalation 0.05 mg/kg per day): 1,324.23%
Percent increase in MMP-11 with respect to the control group (pharyngeal tissue, Group 6, inhalation 0.1 mg/kg per day): 904.21%
Percent increase in MMP-11 with respect to the control group (pharyngeal tissue, Group 7, inhalation 0.2 mg/kg per day): 529.34%
Percent increase in MMP-11 with respect to the control group (pharyngeal tissue, Group 8, inhalation 0.4 mg/kg per day): 109.43%
